According to patent publication US8664201B2 (priority 2008, dated 2014):
“And” between values parts separate entries of the source, which are not always exact repeats. Equal entries are not always repeated. Where two headings read alike, the source gives them in different places. Marks after values point to notes of the source that are not given here.

Legend:
L1210/0 = assay type: in vivo, mice
L1210/CPA = assay type: in vivo, mice
Lewis Lung Carcinoma = test system: Lewis Lung Carcinoma; set-up: species or system mice; conditions: mouse, in vivo
B16 Melanoma = test system: B16 Melanoma; set-up: species or system mice; conditions: mouse, in vivo
P388/0 = assay type: in vivo, mice
P388/CPA = assay type: in vivo, mice
16/C Mammary Tumor = assay type: in vivo, mice
human lox-IMVI melanoma = assay type: in vivo, mice
[1] = test system: human MX-1 mammary tumors; assay type: in vivo, mice
M5076 Sarcoma = assay: SC implanted M5076 sarcoma; assay type: in vivo, mice; conditions: days 11-15
[2] = Acute toxicity, three daily IV bolus injections in mice (IPM lysine salt, IPM parent control); assay type: in vivo; conditions: 150 mg/kg IV daily × 3
Description: This example describes the evaluation of the acute toxicity of isophosphoramide mustard lysine salt, following three days of daily intravenous (bolus) injection in mice. This study consisted of two phases.
The second main study phase consisted of eight treatment groups (five mice/sex/group) that received the test article as a single daily dose for three consecutive days at respective dose levels of 50, 75, 100, 200, 300, 400, 500, and 600 mg/kg. An additional group (5 mice/sex) served as a parent compound control and received the isophosphoramide mustard parent compound in the same manner, at a dose level of 150 mg/kg. The vehicle was 0.9% sodium chloride for injection, USP and all doses were at a constant volume of 15 mL/kg.
Observations for mortality, morbidity, and the availability of food and water were conducted twice daily for all animals. Observations for clinical signs were conducted daily during the study (approximately one and four hours postdose on Days 1, 2, and 3, and once daily on non-dosing days). Body weights for all surviving animals were measured and recorded the second day after receipt, prior to randomization, and on Days-1 and 7. Body weights also were measured on all surviving main study phase animals on Day 14. Macroscopic evaluations were performed on each main study animal at necropsy (Day 15).
Eight main study treatment groups received the test article as a single daily dose for three consecutive days via intravenous (bolus) injection at respective dose levels of 50, 75, 100, 200, 300, 400, 500, and 600 mg/kg. An additional group (five mice/sex) served as a parent compound control and received the Isophosphoramide Mustard Parent Compound in the same manner at a dose level of 150 mg/kg. All doses were at a volume of 15 mL/kg and based on the most recent body weight.

[3] = Single dose oral toxicity of IPM in rats; assay type: in vivo; conditions: for oral LD50: single dose
[4] = Single dose oral toxicity of IPM in mice; assay type: in vivo
[5] = Single dose intravenous toxicity of IPM in rats; assay type: in vivo
[6] = Single dose intravenous toxicity of IPM in mice; assay type: in vivo
[7] = Sub-acute IV (3-day) toxicity of IPM in mice; assay type: in vivo; conditions: for dose with kidney tubular necrosis / dose with severe bone marrow depletion / intravenous LD10 / intravenous LD50: IV daily × 3 days
Excerpt: Multiple daily dose Administrations—IV and IP—have been studied in mice and dogs. Sub-acute intravenous (3-day) dosing in the mouse and dog has provided the toxicology/pharmacokinetic information regarding toxicities and drug disturbances that were utilized in designing the administration and dose schedules in humans.

Lewis lung murine tumor = conditions: mouse, in vivo, ip
MX-1 Human Breast Tumor = conditions: mouse, in vivo, ip
[8] = Estimated comparable human intravenous dosages

## O=P1(N(CCCl)CCCl)NCCCO1 (stereo not shown) [Cyclophosphamide, cyclophosphamide]
L1210/0; 200 mg/kg IP, day 2 only
  % ILS (dying mice only): +107%
  Day 60 survivors/total: 0/10
  Net log10 reduction in tumor burden after therapy: 7
L1210/CPA; 200 mg/kg IP, day 2 only
  % ILS (dying mice only): +57%
  Day 60 survivors/total: 0/10
  Net log10 reduction in tumor burden after therapy: 4
Lewis Lung Carcinoma
  % ILS: 68%
  Log kill total: >6.8
  T-C (tumor growth delay): 27 days
  Tumor-free survivors: 5/10
B16 Melanoma
  % ILS: 68%
  T-C: 27 days
  Tumor-free survivors: 5/10
P388/0; 175 mg/kg IP, day 1 only
  % ILS (dying mice only): +130%
  Day 60 survivors/total: 4/10
  Net log10 reduction in tumor burden after therapy: 7
P388/0; 265 mg/kg IP, day 1 only
  % ILS (dying mice only): +280%
  Day 60 survivors/total: 7/10
  Net log10 reduction in tumor burden after therapy: 7
P388/CPA; 175 mg/kg IP, day 1 only
  % ILS (dying mice only): +35%
  Day 60 survivors/total: 0/10
  Net log10 reduction in tumor burden after therapy: 3
P388/CPA; 265 mg/kg IP, day 1 only
  % ILS (dying mice only): +35%
  Day 60 survivors/total: 0/10
  Net log10 reduction in tumor burden after therapy: 3
16/C Mammary Tumor; 30 mg/kg IP, Q 1dx 4 day 7
  Days Delay (T-C): 0.4 days
  Days to 2 Doublings: 3.6 days
16/C Mammary Tumor; 40 mg/kg IP, Q 1dx 4 day 7
  Days Delay (T-C): 1.2 days
  Days to 2 Doublings: 4.4 days
16/C Mammary Tumor; 50 mg/kg IP, Q 1dx 4 day 7
  Days Delay (T-C): 4.0 days
  Days to 2 Doublings: 7.2 days
16/C Mammary Tumor; 60 mg/kg IP, Q 1dx 4 day 7
  Days Delay (T-C): 4.5 days
  Days to 2 Doublings: 7.7 days
Human lox-IMVI melanoma; 40 mg/kg/dose IV, Q1DX5
  % ILS: +121%
  Median Day of Death: 42.0
[1]; 60 mg/kg IP, Q 1dx 5 day 12
  Days Delay (T-C): >40.5 days
  Days to 2 Doublings: >48.0 days

## O=P(O)(NCCCl)NCCCl [IPM, isophosphoramide mustard]
L1210/0; mouse, in vivo
  % ILS (dying mice only): +128%
  Day 60 survivors/total: 0/10
  Net log10 reduction in tumor burden after therapy: 8
L1210/CPA; mouse, in vivo
  % ILS (dying mice only): +114%
  Day 60 survivors/total: 1/10
  Net log10 reduction in tumor burden after therapy: 7
Lewis Lung Carcinoma
  % ILS: 34%
  Log kill total: >2.1
  T-C (tumor growth delay): 8.4 days
  Tumor-free survivors: 6/10
B16 Melanoma
  % ILS: 34%
  Inhibition of B16 melanoma growth compared with CPA and Ifos: slightly inferior to CPA but better than Ifos
  T-C: 8.4 days
  Tumor-free survivors: 6/10
P388/0; mouse, in vivo
  Day 60 survivors/total: 0/9 and 1/10
P388/CPA; mouse, in vivo
  Day 60 survivors/total: 0/10
  Net log10 reduction in tumor burden after therapy: 7
M5076 Sarcoma; 18 mg/kg IP daily
  Days Delay (T-C): 1 days
  Days To 2 doublings: 10.3 days
M5076 Sarcoma; 27 mg/kg IP daily
  Days Delay (T-C): 3.3 days
  Days To 2 doublings: 12.6 days
M5076 Sarcoma; 40 mg/kg IP daily
  Days Delay (T-C): 6.1 days
  Days To 2 doublings: 15.4 days
16/C Mammary Tumor; mouse, in vivo
  Days Delay (T-C): 6.3 days and 5.2 days and 4.2 days
  Days to 2 Doublings: 9.5 days and 8.5 days and 7.4 days
Human lox-IMVI melanoma; mouse, in vivo
  % ILS: +52%
  Median Day of Death: 29.0
[1]; mouse, in vivo
  Days to 2 Doublings: 26.5 days and 14.2 days
[2]
  Cumulative Mortality, female: 4/5
  Cumulative Mortality, male: 1/5
[2]; listed as IPM parent compound
  Cumulative Mortality, total: 5 of 10 and 5/10
[3]; female rats
  oral LD50: 2786 mg/kg
[3]; male rats
  oral LD50: 4443 mg/kg
[3]; oral, range over mice and rats
  oral LD50 range: 1400 to 3500 mg/kg
[3]; rats, both sexes combined
  oral LD50: 3560 mg/kg
[4]; female mice
  oral LD50: 1962 mg/kg
[4]; male mice
  oral LD50: 1014 mg/kg
[4]; mice, both sexes combined
  oral LD50: 1432 mg/kg
[5]; female rats
  single dose intravenous LD50: 400 mg/kg
[5]; male rats
  single dose intravenous LD50: 567 mg/kg
[6]; female mice
  single dose intravenous LD50: 484 mg/kg
[6]; male mice
  single dose intravenous LD50: 929 mg/kg
[7]; 75 mg/kg, either sex
  treatment-related microscopic findings: No obvious treatment-related microscopic findings
[7]; Mouse
  Sub-acute IV LD10: 119 mg/kg/day
[7]; female mice
  dose with kidney tubular necrosis: ≥ 133 mg/kg
  dose with severe bone marrow depletion: ≥ 133 mg/kg
  intravenous LD10: 125 mg/kg
  intravenous LD50: 132 mg/kg
[7]; male mice
  dose with kidney tubular necrosis: ≥ 237 mg/kg
  dose with severe bone marrow depletion: ≥ 178 mg/kg
  intravenous LD10: 168 mg/kg
  intravenous LD50: 176 mg/kg
[7]; mice, combined sexes
  intravenous LD10: 119 mg/kg
Lewis lung murine tumor
  MTD Dosage: 40.0 mg/kg/dose
  T-C: 12.5* days
MX-1 Human Breast Tumor
  MTD Dosage: 40.0 mg/kg/dose
  T-C: 2.1* days
Dog
  Sub-acute IV LD10: 5 mg/kg/day
dog, in vivo
  survival: (100% survival)
dog, in vivo, iv
  MTD: 5 mg/kg/day
[8]; estimated from dog sub-acute IV value
  Comparable Human IV Dosage: 100 mg/m^2/d
[8]; estimated from mouse sub-acute IV LD10
  Comparable Human IV Dosage: 30 mg/m^2/d
[8]; for three days, from dog MTD
  corresponding safe starting dose in humans: 100 mg/m^2 per day

## O=P1(NCCCl)OCCCN1CCCl (stereo not shown) [Ifosfamide, ifosfamide]
L1210/0; mouse, in vivo
  Day 60 survivors/total: 0/10 and 0/9
  Net log10 reduction in tumor burden after therapy: 8
L1210/CPA; mouse, in vivo
  Day 60 survivors/total: 0/10
Lewis Lung Carcinoma
  % ILS: 55%
  Log kill total: >4.5
  T-C (tumor growth delay): 18 days
  Tumor-free survivors: 7/10
B16 Melanoma
  % ILS: 55%
  T-C: 18 days
  Tumor-free survivors: 7/10
P388/0; mouse, in vivo
  Day 60 survivors/total: 7/10
  Net log10 reduction in tumor burden after therapy: 7
P388/CPA; mouse, in vivo
  Day 60 survivors/total: 0/10
  Net log10 reduction in tumor burden after therapy: 4
16/C Mammary Tumor; mouse, in vivo
  Days to 2 Doublings: 4.6 days and 4.9 days and 3.8 days and 4.0 days
